Molecules are shown by their SMILES.

The source of these data is ChEMBL document CHEMBL1765079, “Syntheses of 2-deoxy-2,3-didehydro-N-acetylneuraminic acid analogues modified by N-sulfonylamidino groups at the C-4 position and biological evaluation as inhibitors of human parainfluenza virus type 1” (Bioorg Med Chem, 2011).

The assay deals with T1, Hemagglutinin-neuraminidase (Human parainfluenza virus 1, UniProt Q06992).
T1 sequence (Q06992 whole entry): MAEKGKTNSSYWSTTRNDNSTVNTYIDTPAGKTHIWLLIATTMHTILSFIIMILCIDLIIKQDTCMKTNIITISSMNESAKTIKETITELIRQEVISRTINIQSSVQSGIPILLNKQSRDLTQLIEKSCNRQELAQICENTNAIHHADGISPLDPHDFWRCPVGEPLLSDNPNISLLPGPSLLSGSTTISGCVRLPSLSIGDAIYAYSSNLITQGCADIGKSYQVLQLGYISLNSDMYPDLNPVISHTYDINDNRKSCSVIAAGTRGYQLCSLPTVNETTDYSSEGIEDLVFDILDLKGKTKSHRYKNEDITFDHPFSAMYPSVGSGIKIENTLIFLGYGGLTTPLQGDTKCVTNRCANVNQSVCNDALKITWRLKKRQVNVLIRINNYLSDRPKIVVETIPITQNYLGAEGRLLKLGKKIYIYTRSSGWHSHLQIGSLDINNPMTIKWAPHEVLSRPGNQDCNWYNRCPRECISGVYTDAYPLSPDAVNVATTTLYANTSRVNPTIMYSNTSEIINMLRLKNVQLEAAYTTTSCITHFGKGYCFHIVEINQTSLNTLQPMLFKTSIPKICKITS
Nature of the assay: Inhibition of Human parainfluenza virus 1 sialidase using N-acetyl-alpha-neuramic acid by fluorometric assay. On the set-up: species or system Human respirovirus 1.
Consider `CCN(CC)/C(CCO[C@H]1C=C(C(=O)O)O[C@@H]([C@H](O)[C@H](O)CO)[C@@H]1NC(C)=O)=N/S(C)(=O)=O`, for which half-maximal inhibition (IC50) required 1500 µM.

For `CC(=O)N[C@H]1[C@H]([C@H](O)[C@H](O)CO)OC(C(=O)O)=C[C@@H]1OCCC(=Nc1ccccc1)NS(C)(=O)=O`, it took 800 µM to reach half-maximal inhibition (IC50).

Take `CCN(CC)/C(CCO[C@H]1C=C(C(=O)O)O[C@@H]([C@H](O)[C@H](O)CO)[C@@H]1NC(C)=O)=N\S(=O)(=O)c1ccc(C)cc1`: it took 9100 µM to reach half-maximal inhibition (IC50).

In the case of `CC(=O)N[C@H]1[C@H]([C@H](O)[C@H](O)CO)OC(C(=O)O)=C[C@@H]1OCC/C(=N\S(=O)(=O)c1ccc(C)cc1)N(C(C)C)C(C)C`, half-maximal inhibition (IC50) was put at 4800 µM.

Regarding `CC(=O)N[C@H]1[C@H]([C@H](O)[C@H](O)CO)OC(C(=O)O)=C[C@@H]1OCCC(=NC(C)C)NS(=O)(=O)c1ccc(C)cc1`, half-maximal inhibition (IC50) required 7700 µM.

In the case of `CC(=O)N[C@H]1[C@H]([C@H](O)[C@H](O)CO)OC(C(=O)O)=C[C@@H]1N=C(Cc1ccccc1)NS(C)(=O)=O`, the IC50 (as a rule, the concentration that inhibits the measured activity by half) worked out at 2100 µM.

`CC(=O)N[C@H]1[C@H]([C@H](O)[C@H](O)CO)OC(C(=O)O)=C[C@@H]1N=C(Cc1ccc(F)cc1)NS(C)(=O)=O` yielded a half-maximal inhibitory concentration (IC50) of 1600 µM.

Take `CCCc1ccc(C/C(=N/S(C)(=O)=O)N[C@H]2C=C(C(=O)O)O[C@@H]([C@H](O)[C@H](O)CO)[C@@H]2NC(C)=O)cc1`: the IC50 came out at 1600 µM.

Regarding `CC(=O)N[C@H]1[C@H]([C@H](O)[C@H](O)CO)OC(C(=O)O)=C[C@@H]1N=C(CC1=CCCCC1)NS(C)(=O)=O`, 1500 µM corresponded to half-maximal inhibition (IC50).

`CC(=O)N[C@H]1[C@H]([C@H](O)[C@H](O)CO)OC(C(=O)O)=C[C@@H]1N=C(Cc1cccs1)NS(C)(=O)=O` gave an IC50 of 2000 µM.

Molecule `CC(=O)N[C@H]1[C@H]([C@H](O)[C@H](O)CO)OC(C(=O)O)=C[C@@H]1N=C(C)NS(C)(=O)=O` registered an IC50 of 16000 µM. Compared with the last molecule, the IC50 is about 8-fold higher.

As for `CC(=O)NC1[C@H](C(O)[C@H](O)CO)OC(C(=O)O)=C[C@@H]1O` (single isomer, unassigned) [NEU5AC2EN], the midpoint of inhibition, the IC50, lay at 300 µM.
